Like-named read-outs stand apart in the source and are kept apart here.
Columns and labels:
[1] = test system: cultured rat hippocampal slices (CA1 region); test: Hypoxia induced neurodegeneration in organotypic hippocampal slice cultures; assay type: cell-based, Wistar rat; conditions: 100 μM; compound present 24 hours pre-, during 3 hours of and 24 hours post-hypoxia; vs hypoxia alone
Protocol: (§1) Wistar rat pups (8-11 days old) were decapitated and the hippocampus rapidly dissected into ice-cold Gey's balanced salt solution supplemented with 4.5 mg/mL glucose. Transverse sections (400 μm) were cut on a McIlwain tissue chopper and placed back into ice-cold Gey's balanced salt solution. Slices were separated and plated onto Millicell CM culture inserts (4 per well) and maintained at 37° C./5% CO2 for 14 days. Maintenance medium consists of 25% heat-inactivated horse serum, 25% Hank's balanced salt solution (HBSS) and 50% minimum essential medium with added Earle's salts (MEM), supplemented with 1 mM glutamine and 4.5 mg/mL glucose. Medium was changed every 3-4 days.
PI fluorescence was detected using a Leica DMIL inverted microscope fitted with a rhodamine filter set. […]
Neuronal damage was assessed using ImageJ software running on a PC. […] Light transmission images were captured prior to the addition of drugs, and PI fluorescence images recorded at the end of the 24-hour recovery period. The area of the CA1 region was then determined from the transmission image. The area of PI fluorescence in the CA1 is measured using the threshold function on ImageJ, and neuronal damage expressed as the percentage of the CA1 in which PI fluorescence is detected above background (Pringle et al., 1997).

[2] = test system: cultured rat hippocampal slices (CA1 region); test: Ischaemia (oxygen glucose deprivation) induced neurodegeneration in organotypic hippocampal slice cultures; assay type: cell-based, Wistar rat
Protocol: as §1
(§2) Neuronal damage was assessed using ImageJ software running on a PC. Images being captured using a monochrome CCD camera and saved for offline analysis. Light transmission images were captured prior to the addition of drugs, and PI fluorescence images recorded at the end of the 24-hour recovery period. The area of the CA1 region was then determined from the transmission image. The area of PI fluorescence in the CA1 is measured using the threshold function on ImageJ, and neuronal damage expressed as the percentage of the CA1 in which PI fluorescence is detected above background (Pringle et al., 1997).
(§3) In this case the sodium selenate was made to 50 mM in SFM, then serially diluted to 25 mM, 10 mM and 1 mM, each of these used at 10 μL/mL to give final concentrations of 10 μM, 100 μM, 250 μM and 500 μM. Sodium selenite and selenomethionine as before. An experiment to assess the toxicity of sodium selenate at these higher concentrations was run in parallel with the OGD (Results FIG. 4).

[3] = test system: cultured rat hippocampal slices; test: Tissue culture toxicity screen in organotypic hippocampal slice cultures
Protocol: as §1, §2
A preliminary toxicity screen was carried out on the compounds to determine tissue culture exposure levels that would cause toxicity. […] Damage was measured after 24 hours and 48 hours.
as §3

[4] = test system: PTZ induced seizures; conditions: for Number of seizures: 30 minutes observation; for Number of seizures / Duration of seizure activity / Number of severe seizures / Latency to seizure onset: mean±SEM; for Latency to seizure onset: not significant vs vehicle
Protocol: All animal experiments were carried out according to the National Institute of Health (NIH) guidelines for the care and use of laboratory animals, and approved by the Ethical Committee of the National Laboratory Animal Center, Kuopio, Finland. Altogether 30 adult male Sprague-Dawley rats (Taconic, Denmark) weighing 200-240 g were used. Animals were housed at a standard temperature (22±1° C.) and in a light-controlled environment (lights on from 7 am to 8 pm) with ad libitum access to food and water.
Animals were grouped as follows: • 10 rats treated with vehicle (sterile water as drinking water). • 10 rats treated with sodium selenate anhydrous (120 microgram in 100 mL sterile water), p.o in drinking water for 7 days prior to PTZ injection. • 10 rats treated with sodium selenate anhydrous (1.2 milligram in 100 mL sterile water), p.o in drinking water for 7 days prior to PTZ injection. PTZ Induced Seizures
Pentylenetetrazol (PTZ) (60 mg/kg) is administered intraperitoneally (i.p., 2 mL/kg in saline) to male Sprague-Dawley rats.
Sodium selenate is administered p.o in drinking water for 7 days prior to PTZ injection. The rats have ad libitum access to water (normal daily consumption of water is 30 mL/rat/day).
The incidence of seizures (seizure and severe seizure), the latency for the first seizure appearance and the duration of seizure activity were used as indices of anticonvulsant effect. Seizure numbers were not counted if the animal died. […] Animals that died were assigned the maximum seizure duration of 30 minutes. […] Severe seizure was defined as a prolonged seizure involving stretching and twisting convulsions.
Values are presented as percentages and differences are considered to be statistically significant at the P<0.05 level. Statistical analysis was performed using StatsDirect software. Differences among groups were analyzed by 1-way-ANOVA followed by Dunnet's test (comparison to the control (=vehicle treated PTZ rats) group).

[5] = 100 μM, compound present 24 hours pre-, during 1 hour of and 24 hours post-ischaemia, vs OGD alone
[6] = 120 μg in 100 mL drinking water p.o. 7 days prior to PTZ
[7] = 1.2 mg in 100 mL drinking water p.o. 7 days prior to PTZ

SMILES	Neuronal damage (PI fluorescence in CA1) after hypoxia [1]	Neuronal damage (PI fluorescence in CA1) after OGD ischaemia [2, 5]	Concentration above which compound was toxic in tissue culture ([3]; serum free media, tested at 5 μM, 25 μM and 100 μM, damage measured after 24 hours and 48 hours)	Toxicity in tissue culture in the absence of hypoxia ([3]; 500 μM, run in parallel with the OGD experiment (FIG. 4))	Tissue culture toxicity ([3]; serum free media, any concentration tested up to 100 μM, 24 hours and 48 hours)	Neuronal damage (PI fluorescence in CA1) after OGD ischaemia ([2]; 250 μM, pre, during and post-ischaemia, vs OGD alone)	Neuronal damage (PI fluorescence in CA1) after OGD ischaemia ([2]; 500 μM, pre, during and post-ischaemia)	Number of seizures [4, 6]	Duration of seizure activity [4, 6] [s]	Number of severe seizures [4, 6]	Latency to seizure onset [4, 6] [s]	Mortality ([4]; 120 μg in 100 mL drinking water p.o. for 7 days prior to PTZ 60 mg/kg i.p., 10 rats) [animal]	Number of seizures [4, 7]	Duration of seizure activity [4, 7] [s]	Number of severe seizures [4, 7]	Latency to seizure onset [4, 7] [s]
O=C(O)c1ccc(C2=C3C=CC(=N3)C(c3ccc(C(=O)O)cc3)=c3ccc([nH]3)=C(c3ccc(C(=O)O)cc3)c3ccc([n-]3)C(c3ccc(C(=O)O)cc3)c3ccc2[n-]3)cc1.[Cl-].[Mn+3] (stereo not drawn) [MnTBAP, Mn(III)tetrakis(4-benzoic acid)porphyrin chloride, reference compound]	prevented	prevented	–	–	–	–	–	–	–	–	–	–	–	–	–	–
O=[Se](O)O [Sodium selenite, reference compound]	–	–	above 5 μM	–	–	–	–	–	–	–	–	–	–	–	–	–
O=[Se](=O)(O)O [sodium selenate]	Significant attenuation of damage	Significant attenuation of damage	–	neurotoxicity	not found to be toxic	Significant attenuation of damage	significant increase in toxicity	8.5±2.1	770.9 ± 189.9	0.8±0.1	217.6 ± 117.6	1	9.9±2.2	808.6 ± 126.1	0.9±0.1	107.6 ± 26.9

From patent US9415063B2, “Treatment of neurological disorders” (VELACOR THERAPEUTICS PTY LTD., priority 2007, dated 2016)
